PubChem BioAssay (NCI)
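Results reflect a 48-hour exposure of cells in 96-well plates to compound at five concentrations. Here, GI50 denotes the concentration required for 50% inhibition of growth. At the TGI there is no net growth.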

How the values were obtained:
Assay in all cases: inhibition of tumour cell growth, NCI panel, 48 h
[1] = test system: SN12C renal
[2] = test system: MOLT-4 leukemia
[3] = test system: KM12 colon
[4] = test system: MDA-MB-435
[5] = test system: T-47D breast
[6] = test system: HCC-2998 colon
[7] = test system: LOX IMVI melanoma
[8] = test system: SR leukemia
[9] = test system: OVCAR-5 ovarian
[10] = test system: HL-60(TB) leukemia
[11] = test system: UACC-257 melanoma
[12] = test system: SF-268 CNS
[13] = test system: U251 CNS
[14] = test system: HOP-62 NSCLC
[15] = test system: OVCAR-8 ovarian
[16] = test system: SK-MEL-28 melanoma
[17] = test system: HT29 colon
[18] = test system: NCI-H522 lung
[19] = test system: MCF7 breast
[20] = test system: SNB-19 CNS
[21] = test system: HCT-15 colon
[22] = test system: A549 NSCLC
[23] = test system: M14 melanoma
[24] = test system: ACHN renal
[25] = test system: MALME-3M melanoma
[26] = test system: COLO 205 colon
[27] = test system: SF-539 CNS
[28] = test system: MDA-MB-231 breast
[29] = test system: SF-295 CNS
[30] = test system: SW-620 colon
[31] = test system: HCT-116 colon
[32] = test system: CCRF-CEM leukemia
[33] = test system: K-562 leukemia
[34] = test system: CAKI-1 renal
[35] = test system: UO-31 renal
[36] = test system: UACC-62 melanoma
[37] = test system: TK-10 renal
[38] = test system: OVCAR-4 ovarian
[39] = test system: NCI-H23 lung
[40] = test system: DU-145 prostate
[41] = test system: NCI/ADR-RES ovarian
[42] = test system: PC-3 prostate
[43] = test system: SK-OV-3 ovarian
[44] = test system: SNB-75 CNS
[45] = test system: RPMI-8226 leukemia
[46] = test system: BT-549 breast
[47] = test system: HOP-92 NSCLC
[48] = test system: NCI-H226 lung
[49] = test system: A498 renal
[50] = test system: IGROV1 ovarian
[51] = test system: RXF 393 renal
[52] = test system: HS 578T breast
[53] = test system: NCI-H460 lung
[54] = test system: OVCAR-3 ovarian
[55] = test system: SK-MEL-2 melanoma
[56] = test system: SK-MEL-5 melanoma
[57] = test system: 786-0 renal

Molecule COc1ccc(C2CC(=O)Nc3c2c(C)nn3-c2nc3ccccc3[nH]2)cc1OC (centres undefined) has a GI50 [1] of 5.96 µM, a TGI [1] of 35.5 µM and a GI50 [2] of 0.0405 µM. It also gave a TGI [2] of 0.27 µM, a GI50 [3] of 3.7 µM and a TGI [3] of 14.1 µM. It also gave a GI50 [4] of 3.25 µM, a TGI [4] of 18.3 µM and a GI50 [5] of 4.49 µM. For the same molecule, the TGI [5] was 50.1 µM, the GI50 [6] was 10.9 µM and the TGI [6] was 41.2 µM. For the same molecule, the GI50 [7] was 4.51 µM, the TGI [7] was 19.1 µM and the GI50 [8] was 3.36 µM. For the same molecule, the TGI [8] was 26.2 µM, the GI50 [9] was 25.4 µM and the TGI [9] was greater than 77.2 µM. The GI50 [10] was 3.29 µM, the TGI [10] was 12.6 µM and the GI50 [11] was 6.46 µM. It also gave a TGI [11] of 55.4 µM, a GI50 [12] of 5.07 µM and a TGI [12] greater than 69.5 µM. It also gave a GI50 [13] of 4.58 µM, a TGI [13] of 19.7 µM and a GI50 [14] of 4.32 µM. The TGI [14] was 24.4 µM, the GI50 [15] was 4.09 µM and the TGI [15] was 43.6 µM. For the same molecule, the GI50 [16] was 4.9 µM, the TGI [16] was greater than 100 µM and the GI50 [17] was 5.66 µM. The TGI [17] was 40 µM, the GI50 [18] was 3.83 µM and the TGI [18] was 25.6 µM. For the same molecule, the GI50 [19] was 3.78 µM, the TGI [19] was greater than 100 µM and the GI50 [20] was 8.64 µM. The TGI [20] was greater than 100 µM, the GI50 [21] was 4.76 µM and the TGI [21] was greater than 58.9 µM. The GI50 [22] was 3.82 µM, the TGI [22] was 17.8 µM and the GI50 [23] was 3.45 µM. The TGI [23] was 20.4 µM, the GI50 [24] was 4.45 µM and the TGI [24] was 34.1 µM. It also gave a GI50 [25] of 4.94 µM, a TGI [25] of 29 µM and a GI50 [26] of 9.36 µM. For the same molecule, the TGI [26] was 40.7 µM, the GI50 [27] was 2.85 µM and the TGI [27] was 9.48 µM. For the same molecule, the GI50 [28] was 4.39 µM, the TGI [28] was 21 µM and the GI50 [29] was 1.77 µM. It also gave a TGI [29] of 6.91 µM, a GI50 [30] of 4.86 µM and a TGI [30] of 49.6 µM. The GI50 [31] was 3.31 µM, the TGI [31] was 14.9 µM and the GI50 [32] was 1.62 µM. For the same molecule, the TGI [32] was greater than 96.3 µM, the GI50 [33] was 4.81 µM and the TGI [33] was greater than 100 µM. It also gave a GI50 [34] of 3.83 µM, a TGI [34] of 24.3 µM and a GI50 [35] of 3.37 µM. It also gave a TGI [35] of 14.6 µM, a GI50 [36] of 3.15 µM and a TGI [36] of 12.8 µM. The GI50 [37] was 8.95 µM, the TGI [37] was 93.5 µM and the GI50 [38] was 6.42 µM. For the same molecule, the TGI [38] was greater than 100 µM, the GI50 [39] was 3.66 µM and the TGI [39] was 22.1 µM. The GI50 [40] was 6.87 µM, the TGI [40] was 27.1 µM and the GI50 [41] was 12 µM. It also gave a TGI [41] greater than 100 µM, a GI50 [42] of 4.27 µM and a TGI [42] of 63.6 µM. It also gave a GI50 [43] of 2.89 µM, a TGI [43] of 6.49 µM and a GI50 [44] of 3.46 µM. The TGI [44] was greater than 56.1 µM, the GI50 [45] was 3.08 µM and the TGI [45] was 8.68 µM. The GI50 [46] was 4.19 µM, the TGI [46] was 33.7 µM and the GI50 [47] was 6.01 µM. For the same molecule, the TGI [47] was 35.1 µM, the GI50 [48] was 3.31 µM and the TGI [48] was 14.1 µM. The GI50 [49] was 2.01 µM, the TGI [49] was 13.4 µM and the GI50 [50] was 4.67 µM. It also gave a TGI [50] greater than 93.3 µM, a GI50 [51] of 2.19 µM and a TGI [51] of 5.69 µM. It also gave a GI50 [52] of 4.49 µM, a TGI [52] greater than 100 µM and a GI50 [53] of 3.46 µM. For the same molecule, the TGI [53] was 16.2 µM, the GI50 [54] was 3.99 µM and the TGI [54] was 14 µM. For the same molecule, the GI50 [55] was 4.85 µM, the TGI [55] was 21.9 µM and the GI50 [56] was 2.42 µM. The TGI [56] was 6.17 µM, the GI50 [57] was 5.2 µM and the TGI [57] was 24.8 µM.
